Legend:
LS174T cell line = test: Cell viability assay (XTT), LS174T; format: cell-based, human; conditions: 4 h exposure, 20, 40 or 60 μM, in comparison with the comparative compound
Method: (§1) H-727 and H-460 cell lines, derived from human lung carcinoma, and human prostate carcinoma PC3 cells, were cultured in RPMI 1640 medium supplemented with 10% fetal bovine serum, 1% glutamine and 100 units/ml penicillin/streptomycin (Life Technologies, Inc.). LS174T cells, derived from human colorectal carcinoma, and CAL51 cells, from breast carcinoma, were cultured in DMEM medium supplemented with 10% fetal bovine serum, 1% glutamine and 100 units/ml penicillin/streptomycin (Life Technologies, Inc.). All cell lines were incubated at 37° C. in a humidified atmosphere containing 5% CO2. The stock solution of each compound was reconstituted in DMSO and diluted in culture media before use.
(§2) Antitumor activity was evaluated measuring cell metabolic capacity (viability), using the Cell Proliferation Kit II (XTT) and following the recommendations of the manufacturer (Roche Diagnostics). The assays were carried out in triplicates, with controls containing unexposed cells, cells with vehicle, or media plus compound. Cells were seeded into 96-well plates in 100 μl of media and incubated for 24 h. […] After 4 h of incubation at 37° C., the absorbance at 490 nm was read. The growth inhibitory activity was obtained subtracting the absorbance of the blanks and expressed as percentage of cell growth inhibition, as compared with untreated controls.

CAL51 cell line = test: Cell viability assay (XTT), CAL51; format: cell-based; conditions: CAL51, 4 h exposure, 20, 40 or 60 μM, in comparison with the comparative compound
Method: as §1, §2

H-460 cell line = test: Cell viability assay (XTT), H-460; format: cell-based, human; conditions: H-460, 4 h exposure, 20, 40 or 60 μM, in comparison with the comparative compound
Method: as §1, §2

H-727 cell line = test: Cell viability assay (XTT), H-727; format: cell-based, human
Method: as §1, §2

PC3 cell line = test: Cell viability assay (XTT), PC3; format: cell-based, human; conditions: PC3, 4 h exposure, 20, 40 or 60 μM, in comparison with the comparative compound
Method: as §1, §2

## NS(=O)(=O)c1ccc(-n2cc(C(F)(F)F)cc2-c2cc(C(F)(F)F)cc(C(F)(F)F)c2)cc1 [Example 2, 4-[2-(3,5-Bis(trifluoromethyl)phenyl)-4-(trifluoromethyl)-1H-pyrrol-1-yl]benzenesulfonamide]
LS174T cell line
  tumor cell viability: significantly reduced tumor cell viability
CAL51 cell line
  tumor cell viability: significantly reduced tumor cell viability
H-460 cell line
  tumor cell viability: significantly reduced tumor cell viability
H-727 cell line; H-727, 4 h exposure, 20, 40 or 60 μM, in comparison with the comparative compound
  tumor cell viability: significantly reduced tumor cell viability
H-727 cell line; H-727, at 40 μm, 4 h, as compared to the comparative example
  reduction in the tumor cell viability percentage: more than 50%
PC3 cell line
  tumor cell viability: significantly reduced tumor cell viability

Source: US20120196915A1, “Antitumor 1,2-Diphenylpyrrole Compounds and their Preparation Process” (ARGON PHARMA, S.L., priority 2009, published 2012)
